Key:
[1] = tested on: retinal neovascularization (视网膜新生血管); assay: Oxygen-induced retinopathy (OIR) mouse model; retinal flat mount with FITC-conjugated isolectin-B4, fluorescence microscopy of retinal neovascularization at P17; type: in vivo
VEGF-A = assay: Western blot of VEGF-A protein in retina of OIR mice (PBS control group and FUT-175 treated group); type: in vivo, mouse; settings: retina total protein

N=C(N)c1ccc2cc(OC(=O)c3ccc(N=C(N)N)cc3)ccc2c1 [甲磺酸萘莫司他]
change in retinal neovascularization growth after injection ([1]; C3aR-/- and C5aR-/- mice, same OIR treatment): 变化并不明显 | fundus vessel growth ([1]; C57BL/6J mice, OIR (75% oxygen from P7 for 5 d), 50 mg/kg i.p. daily from P12, evaluated at P17): 血管生长趋于正常 | inhibition of RNV growth ([1]; C57BL/6J mice, OIR (75% oxygen from P7 for 5 d), 50 mg/kg i.p. daily from P12, evaluated at P17, fluorescence microscopy): 能够明显抑制RNV的生长 | VEGF-A expression change (VEGF-A; C3aR and C5aR knockout): 无检测到VEGF-A的表达变化 | VEGF-A protein expression (VEGF-A; C57BL/6J): 可调节VEGF-A的蛋白表达

Source: patent CN102743371A, “一种治疗视网膜新生血管性疾病的药物” (SPECIALTY OF OPHTHALMOLOGY RESEARCH INSTITUTE SHANDONG PROV, priority 2012, dated 2012)
